Experimental data reported in patent publication US11925724B2, “Compounds with dual activity” (priority 2015, dated 2024).
Square brackets hold non-standard residues; d marks the D form. Ends that are not written are not given here. Peptide text beside a SMILES is read from it. Phe(4-F) = N[CH](Cc1ccc(F)cc1)C(=O)O; Dopa = N[CH](Cc1ccc(O)c(O)c1)C(=O)O

What was measured:
[1] = Peptide layer thickness on Ti by XPS; format: physicochemical; conditions: peptide-coated Ti substrate
From the text: Using X-ray Photoelectron Spectrometry (XPS) analysis, the presence of fluorine atoms on the surface and the thickness of the peptide layer were characterized. As expected, in the case of a bare titanium, there was no indication of the presence of fluorine, while in all cases of substrate-coated with peptides, the presence of fluorine signal indicated the deposition of the peptides on the surface (FIG. 3).

[2] = test system: Escherichia Coli; test: Adherence of Escherichia Coli to bare and peptide coated substrates (live bacteria count after biofilm formation); format: cell-based; conditions: peptide-coated Ti, overnight incubation in bacteria medium, CFU plate counts
Method: To assess the bacterial attachment to the surfaces and the anti-fouling activity of the peptides, the adherence of Escherichia Coli to bare and peptide coated substrates was promoted. Following this, the surfaces incubated overnight in the bacteria medium to enable the biofilm formation. After the incubation, the surfaces were slowly rinsed, swabbed the adhered bacteria and seeded them in order to evaluate the number of live bacteria on the substrates. […] Escherichia coli were grown in LB medium for 5.5 hours at 37° C. in loosely capped erlenmeyer flask with agitation (120 rpm). […] Afterward, LB media (2 mL) were added to each well and the plates were incubated at 37° C. overnight. Each surface was rinsed by shaking the surface in sterilized water three times. A sterile swab was then used to pick up the biofilms attached to the surfaces. The swabs were inserted into eppendorf tubes containing 1 mL of sterilized water and vortexed for 1 min. Each sample was decimally diluted and plated out on dried LB agar (10 g LB and 7.5 g agar per 0.5 L TDW) plate (8 drops of 10 ul for each dilution). Plate counts (CFU mL-1) were carried out after incubation over night at 37° C. The data presents 3 experiments with triplicates for each experiment. The data is given as mean values ±standard deviations. Significant differences between group means were analyzed by t-test and confidence levels were set at 95%.

Row | Compound | thickness of the peptide layer (XPS) [1] [nm] | reduction of live bacteria on substrate as compared to a bare Ti surface [2]
1 | N=C(N)NCCCC(NC(=O)C(Cc1ccc(F)cc1)NC(=O)C(Cc1ccc(F)cc1)NC(=O)C(N)Cc1ccc(O)c(O)c1)C(=O)NCC(=O)NC(CC(=O)O)C(N)=O (stereo not drawn) [Peptide 1, DOPA-Phe(4F)-Phe(4F)-Arg-Gly-Asp] (H-[Dopa][Phe(4-F)][Phe(4-F)]RGD-NH2; configuration not given here) | 4.74 | up to 80%
2 | N=C(N)NCCCC(NC(=O)C(Cc1ccc(F)cc1)NC(=O)C(CC(=O)O)NC(=O)C(N)Cc1ccc(O)c(O)c1)C(=O)NC(Cc1ccc(F)cc1)C(=O)NCC(N)=O (stereo not drawn) [Peptide 3] (H-[Dopa]D[Phe(4-F)]R[Phe(4-F)]G-NH2; configuration not given here) |  | up to 72%
3 | N=C(N)NCCCC(NC(=O)C(Cc1ccc(O)c(O)c1)NC(=O)C(Cc1ccc(F)cc1)NC(=O)C(N)Cc1ccc(F)cc1)C(=O)NCC(=O)NC(CC(=O)O)C(N)=O (stereo not drawn) [Peptide 2] (H-[Phe(4-F)][Phe(4-F)][Dopa]RGD-NH2; configuration not given here) | 4.33 | ≤ 82%
4 | Peptide 4: control peptide with the same amino acids in mixed sequence, without the cell adhesion and the anti-fouling elements ([Dopa][Phe(4-F)]DG[Phe(4-F)]R; not fully specified (C-terminus)) |  | ≤ 62%
